Experimental data from PMC13203959, “New inhibitors of the Pseudomonas aeruginosa enzyme, PqsE, and methods assessing their potential to induce a conformational change via active site binding” (mSphere, 2026).
Like-named read-outs stand apart in the source and are kept apart here.

Assays:
[1] = target: T1, PqsE(WT) (Pseudomonas aeruginosa, UniProt P20581); assay: Esterase assay: inhibition of PqsE-catalyzed MU-butyrate hydrolysis; assay type: biochemical; conditions: for maximum level of inhibition of PqsE(WT): % inhibition
T1 construct: 6xHis (N); made in house; host or cells: E. coli BL21 (DE3)
Procedure: Purified PqsE, diluted in assay buffer (50 mM Tricine, 0.01% Triton X-100, pH 8.5), was added to the wells of an opaque 384-well plate at a final concentration of 125 nM. Test molecules were diluted in DMSO and added to the wells at the indicated concentrations (5% DMSO final). The plate was then incubated at room temperature for 5 min. MU-butyrate in assay buffer was added to the plate at a final concentration of 2 µM. The plate was incubated at room temperature for 20 min prior to measuring fluorescence (excitation: 360 nm and emission: 450 nm) to monitor the hydrolysis of MU-butyrate. All data were plotted in the Prism 9.0 program, and IC50 values were calculated from inhibition curves fit to the data.

[2] = target: T2, PqsE(E182A) (Pseudomonas aeruginosa, UniProt P20581, E182A); assay type: binding; conditions: PqsE(E182A) 2 µM, compound 100 µM
T2 construct: made in house

[3] = target: T3, PqsE(E280A) (Pseudomonas aeruginosa, UniProt P20581, E280A); assay type: binding; conditions: PqsE(E280A) 2 µM, compound 100 µM
T3 construct: made in house

[4] = target: T4, PqsE-RhlR interaction (Pseudomonas aeruginosa, UniProt P20581); assay: PqsE-RhlR in vitro pull-down; assay type: binding; conditions: up to 100 µM, 1 µM 6xHis-PqsE(WT), RhlR-containing lysate
T4 construct: made in house; host or cells: Escherichia coli (PqsE purified; RhlR as crude lysate from a pET23a-rhlR strain grown with mBTL)
Procedure: RhlR was expressed following a previously established method ([18], [19]). Briefly, lysate was prepared from cultures of an Escherichia coli strain carrying rhlR on a pET23a plasmid that had been treated with the RhlR-solubilizing ligand, mBTL ([33]). The pull-down assay was conducted following a previously established method with some modifications ([18]). Briefly, purified 6xHis-PqsE(WT) was incubated with test molecules at the specified concentrations for 10 min at room temperature. The treated PqsE was then added to 100 µL of RhlR-containing lysate in lysis buffer (50 mM Tris-HCl, 150 mM NaCl, 20 mM imidazole, pH = 8.0) to a total final volume of 150 µL and a final PqsE concentration of 1 µM (final 0.6% DMSO). The mixtures were incubated at 4°C with rotation for 30 min before MagneHis Ni resin (Promega) was added (10 µL of settle volume), and incubation at 4°C with rotation was continued for 1 h. The Ni resin was then washed three times with lysis buffer, and then PqsE complexes were eluted with 50 µL elution buffer (50 mM Tris-HCl, 150 mM NaCl, 500 mM imidazole, pH = 8.0). The eluted proteins were then denatured in Laemmli sample buffer at 95°C and analyzed by SDS-PAGE.

[5] = target: T5, PqsE(E182W/E280A) (Pseudomonas aeruginosa, UniProt P20581, E182W/E280A); assay type: binding; conditions: PqsE(E182W/E280A) 2 µM, compound 100 µM
T5 construct: made in house

[6] = target: T6, PqsE(E182W) (Pseudomonas aeruginosa, UniProt P20581, E182W); assay type: binding; conditions: PqsE(E182W) 2 µM, compound 100 µM
T6 construct: made in house

[7] = target: T7, PqsE(S285A) (Pseudomonas aeruginosa, UniProt P20581, S285A); assay: Esterase assay: inhibition of MU-butyrate hydrolysis by PqsE(S285A); assay type: biochemical; conditions: for increase of IC50 against PqsE(S285A) variant versus PqsE(WT): 20 min; for maximum level of inhibition of PqsE(S285A): % inhibition
[8] = target: T8, PqsE(S285W) (Pseudomonas aeruginosa, UniProt P20581, S285W); assay type: binding; conditions: compound 100 µM; for Tm of PqsE-HJ complex / ∆Tm, shift in melting temperature vs DMSO-treated control: PqsE(S285W) 2 µM; for significance of shift in Tm compared to HJ2: PqsE(S285W)
T8 construct: 6xHis (N); made in house; host or cells: E. coli BL21 (DE3)

[9] = target: T9, PqsE(S285Y) (Pseudomonas aeruginosa, UniProt P20581, S285Y); assay type: binding; conditions: PqsE(S285Y) 2 µM, compound 100 µM
T9 construct: made in house

[10] = target: T10, PqsE(S285D) (Pseudomonas aeruginosa, UniProt P20581, S285D); assay type: binding; conditions: PqsE(S285D) 2 µM, compound 100 µM
T10 construct: made in house

[11] = target: T7, PqsE(S285A); assay: Differential scanning fluorimetry (DSF), PqsE(S285A); assay type: binding; conditions: compound 100 µM; for Tm of PqsE-HJ complex / ∆Tm, shift in melting temperature vs DMSO-treated control: PqsE(S285A) 2 µM; for significance of shift in Tm compared to HJ2: PqsE(S285A)
[12] = target: T1, PqsE(WT); assay: Differential scanning fluorimetry (DSF), PqsE(WT); assay type: binding; conditions: PqsE(WT) 2 µM, compound 100 µM
Procedure: Compounds HJ1, HJ2, and HJ5 were tested for the ability to bind and shift the Tm of purified PqsE and PqsE variants using DSF as described previously with some modifications ([18]). Briefly, compounds in DMSO were diluted in assay buffer (50 mM Tris, 150 mM NaCl, 200 µM MnCl2, pH 8) to achieve a final concentration of 100 µM (1% DMSO). Compound solutions were transferred to the wells of a 96-well PCR plate (ThermoFisher), and control wells were prepared with 1% DMSO (negative control). SYPRO Orange Dye and PqsE solutions were diluted in assay buffer and subsequently added to the wells to reach final concentrations of 7× SYPRO Orange and 2 µM PqsE. Final volume in each well was 80 µL. Plates were sealed with transparent optical adhesive covers (ThermoFisher) prior to measurement of SYPRO Orange fluorescence (ex, 580 nm; em, 623 nm) in a QuantStudio 3 Real-Time PCR system (ThermoFisher) over an increasing temperature gradient from 25 to 90°C (temperature increased at a rate of 0.1°C/s). Tm was determined from first derivative plots of the raw fluorescence curves using the Prism 9.0 software.

[13] = target: T8, PqsE(S285W); assay type: biochemical; conditions: esterase assay
[14] = target: T1, PqsE(WT); conditions: 10 min trypsin
[15] = system: wild-type P. aeruginosa PA14; assay: Pyocyanin assay, wild-type strain; assay type: cell-based, Pseudomonas aeruginosa
Procedure: P. aeruginosa PA14 cultures were grown overnight in LB at 37°C with shaking. The saturated cultures were then diluted 1:1,000 into fresh LB containing test molecules in DMSO (final 1% DMSO). Cultures then grew for ~17 h at 37°C with shaking at 200 rpm. Next, 1 mL of each culture was collected and pelleted by centrifugation at 13,000 rpm for 3 min. The supernatant was carefully transferred to a cuvette, and the OD695 was measured in a Genesys 20 ThermoSpectronic spectrophotometer. The cell pellet was resuspended in 1 mL of PBS and then transferred into the wells of a clear 96-well plate at 100 µL per well. The OD600 was measured to assess cell density. Pyocyanin production (OD695) of the supernatants was normalized to cell density (OD600 of the resuspended cell pellets).

[16] = system: P. aeruginosa PA14 pqsE(S285W) mutant strain; assay type: cell-based; conditions: 50 or 100 µM

SMILES | Tm of PqsE-HJ complex [2] [°C] | ∆Tm, shift in melting temperature vs DMSO-treated control [2] [°C] | Tm of PqsE-HJ complex [3] [°C] | ∆Tm, shift in melting temperature vs DMSO-treated control [3] [°C] | effect on PqsE-RhlR complex formation [4] | Tm of PqsE-HJ complex [5] [°C] | ∆Tm, shift in melting temperature vs DMSO-treated control [5] [°C] | maximum level of inhibition of PqsE(WT) [1] | Tm of PqsE-HJ complex [6] [°C] | ∆Tm, shift in melting temperature vs DMSO-treated control [6] [°C] | Tm of PqsE-HJ complex [8] [°C] | ∆Tm, shift in melting temperature vs DMSO-treated control [8] [°C] | Tm of PqsE-HJ complex [9] [°C] | ∆Tm, shift in melting temperature vs DMSO-treated control [9] [°C] | Tm of PqsE-HJ complex [10] [°C] | ∆Tm, shift in melting temperature vs DMSO-treated control [10] [°C] | Tm of PqsE-HJ complex [11] [°C] | ∆Tm, shift in melting temperature vs DMSO-treated control [11] [°C] | Tm of PqsE-HJ complex [12] [°C] | ∆Tm, shift in melting temperature vs DMSO-treated control [12] [°C] | also measured
CC(C)(C)CNC(=O)Nc1ccc(NC(=O)c2cccc3cn[nH]c23)cc1 [BB584, reference compound] | – | – | – | – | – | – | – | – | – | – | – | – | – | – | – | – | – | – | – | – | IC50 ([1]; 125 nM PqsE, 2 µM MU-butyrate, pH 8.5, read-out: IC50, inhibition of PqsE enzyme function (MU-butyrate hydrolysis)): 108 nM
Cc1ccc(C(=O)Nc2ccc(NC(=O)OC(C)(C)C)cc2)c2[nH]ncc12 [HJ5] | 70.6 | 1.00 | 67.7 | 1.21 | neither HJ1 nor HJ5 showed any effect on complex formation | 71.9 | 2.12 | ~ 50% | 75.5 | 2.05 | 67.5 | 0.74 | 68.2 | 0.40 | 67.3 | 0.48 | 68.6 | 1.35 | 68.8 | 1.82 | IC50 [1]: 379 nM; increase of IC50 against PqsE(S285A) variant versus PqsE(WT) [7]: approximately 10 fold; maximum level of inhibition of PqsE(S285A) [7]: approximately 10%; significance of shift in Tm compared to HJ2 [8]: neither HJ1 nor HJ5 induced significant shifts in Tm; significance of shift in Tm compared to HJ2 [11]: neither HJ1 nor HJ5 induced significant shifts in Tm; effect of S285W substitution on binding/inhibition [13]: completely abrogated binding; band intensity of undigested protein (band 1) after trypsin exposure ([14]; increasing concentrations up to 100 µM): increases as the concentration of HJ5 increases; induction of PqsE(E182W)-like banding pattern (conformational change) upon tryptic digest ([14]; up to 100 µM, 10 µM PqsE(WT)): did not produce a banding pattern similar to that of PqsE(E182W); decrease in pyocyanin production compared to DMSO-treated WT strain ([15]; 100 µM, WT strain, ~17 h): ~ 37%; inhibition at 50 µM ([15]; Pseudomonas aeruginosa, PA14, 50 µM, WT strain, ~17 h, read-out: inhibition of pyocyanin production compared to DMSO-treated WT strain): ~30%
Cc1n[nH]c2c(C(=O)Nc3ccc(NC(=O)OC(C)(C)C)cc3)cccc12 [HJ2] | 69.2 | -0.47 | 67.1 | 0.61 | – | 70.0 | 0.20 | – | 73.9 | 0.48 | 66.8 | 0.07 | 68.2 | 0.41 | 67.0 | 0.14 | 67.9 | 0.61 | 67.7 | 0.74 | inhibitory activity on enzymatic activity of PqsE ([1]; esterase assay, dilution series): virtually no effect
CC(C)(C)OC(=O)Nc1ccc(NC(=O)c2cccc3cn[nH]c23)cc1 [HJ1] | 70.1 | 0.50 | 68.8 | 2.28 | neither HJ1 nor HJ5 showed any effect on complex formation | 72.4 | 2.58 | 100% | 74.4 | 0.98 | 66.8 | 0.07 | 68.3 | 0.54 | 67.2 | 0.35 | 68.1 | 0.81 | 70.5 | 3.56 | increase of IC50 against PqsE(S285A) variant versus PqsE(WT) [7]: approximately 10 fold; maximum level of inhibition of PqsE(S285A) [7]: ~ 70%; significance of shift in Tm compared to HJ2 [8]: neither HJ1 nor HJ5 induced significant shifts in Tm; significance of shift in Tm compared to HJ2 [11]: neither HJ1 nor HJ5 induced significant shifts in Tm; effect on pyocyanin production [16]: no appreciable effect; effect of S285W substitution on binding/inhibition [13]: completely abrogated binding; effect on pyocyanin production ([15]; pqsE(WT) strain, up to 100 µM): no appreciable effect
